Tests used:
[1] = molecular target: G protein-coupled receptor kinase 4 (Homo sapiens) (UniProt P32298); assay: Selectivity interaction (KinomeScan (DiscoverX)) EUB0001049a GRK4; conditions: at 1 µM
[2] = molecular target: Cyclin-dependent kinase 16 (Homo sapiens) (UniProt Q00536); assay: Selectivity interaction (KinomeScan (DiscoverX)) EUB0000666a CDK16; conditions: at 10 µM
[3] = molecular target: T1, Histone-arginine methyltransferase CARM1 (Homo sapiens) (UniProt Q86X55); conditions: KMS-11, at 3 µM
T1 sequence (whole entry): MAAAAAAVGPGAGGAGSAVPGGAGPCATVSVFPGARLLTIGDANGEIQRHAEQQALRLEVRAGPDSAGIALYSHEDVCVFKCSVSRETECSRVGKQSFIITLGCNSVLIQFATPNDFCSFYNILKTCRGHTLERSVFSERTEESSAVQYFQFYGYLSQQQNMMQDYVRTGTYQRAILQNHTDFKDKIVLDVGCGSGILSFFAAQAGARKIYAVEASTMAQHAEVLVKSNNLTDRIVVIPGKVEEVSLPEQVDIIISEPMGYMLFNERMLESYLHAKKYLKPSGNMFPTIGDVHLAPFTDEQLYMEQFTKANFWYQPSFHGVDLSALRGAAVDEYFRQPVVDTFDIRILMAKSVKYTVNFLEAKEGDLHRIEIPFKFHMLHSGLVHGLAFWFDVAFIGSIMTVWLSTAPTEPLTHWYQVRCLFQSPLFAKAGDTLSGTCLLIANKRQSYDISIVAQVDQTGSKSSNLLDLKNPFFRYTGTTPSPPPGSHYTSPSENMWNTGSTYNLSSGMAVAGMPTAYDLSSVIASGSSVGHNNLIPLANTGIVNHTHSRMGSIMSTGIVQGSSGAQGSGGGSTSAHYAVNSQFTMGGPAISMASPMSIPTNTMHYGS

[4] = molecular target: Leukotriene B4 receptor 1 (Homo sapiens) (UniProt Q15722); assay: Selectivity interaction (Eurofins CEREP Diversity Profile (receptors and ion channels)) EUB0000279b LTB4R; conditions: at 10 µM
[5] = molecular target: Tyrosine-protein kinase JAK1 (Homo sapiens, UniProt P23458); assay: Selectivity interaction (ActivX KiNativ screen (kinase selectivity in THP-1 cell lysates)) EUB0000639a JAK1; assay type: subcellular; conditions: lysate
[6] = molecular target: G protein-coupled receptor kinase 4 (Homo sapiens) (UniProt P32298); assay: Selectivity interaction (KinomeScan (DiscoverX)) EUB0000045b GRK4
[7] = test system: Tyrosine-protein kinase ABL1 (Homo sapiens), P00519 [H396P]; assay: Selectivity interaction (KinomeScan (DiscoverX)) EUB0000618a ABL1; conditions: at 10 µM
[8] = molecular target: T2, Activin receptor type-1B (Homo sapiens) (UniProt P36896); assay: Selectivity interaction (KinomeScan (DiscoverX)) EUB0000618a ACVR1B; conditions: at 10 µM
T2 sequence (whole entry): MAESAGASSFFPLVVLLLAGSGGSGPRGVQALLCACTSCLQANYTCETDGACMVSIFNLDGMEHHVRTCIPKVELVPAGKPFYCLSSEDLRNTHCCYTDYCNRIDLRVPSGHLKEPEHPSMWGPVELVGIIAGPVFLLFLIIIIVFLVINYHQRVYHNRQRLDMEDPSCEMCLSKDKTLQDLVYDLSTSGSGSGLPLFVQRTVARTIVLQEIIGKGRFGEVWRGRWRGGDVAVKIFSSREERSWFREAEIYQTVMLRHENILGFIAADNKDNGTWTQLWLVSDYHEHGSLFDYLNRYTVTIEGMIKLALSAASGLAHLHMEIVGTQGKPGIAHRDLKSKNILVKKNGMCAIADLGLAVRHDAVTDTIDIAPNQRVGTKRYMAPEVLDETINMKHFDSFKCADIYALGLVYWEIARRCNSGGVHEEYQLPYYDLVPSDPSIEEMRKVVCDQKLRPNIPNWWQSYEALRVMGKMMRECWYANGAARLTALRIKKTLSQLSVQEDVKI

[9] = molecular target: Serine/threonine-protein kinase PAK 3 (Homo sapiens) (UniProt O75914); assay: Selectivity interaction (KinomeScan (DiscoverX)) EUB0000607a PAK3; conditions: at 10 µM
[10] = molecular target: T3, Serine/threonine-protein kinase D2 (Homo sapiens) (UniProt Q9BZL6); assay: Selectivity interaction (ProQinase) EUB0000171b PRKD2
T3 sequence (whole entry): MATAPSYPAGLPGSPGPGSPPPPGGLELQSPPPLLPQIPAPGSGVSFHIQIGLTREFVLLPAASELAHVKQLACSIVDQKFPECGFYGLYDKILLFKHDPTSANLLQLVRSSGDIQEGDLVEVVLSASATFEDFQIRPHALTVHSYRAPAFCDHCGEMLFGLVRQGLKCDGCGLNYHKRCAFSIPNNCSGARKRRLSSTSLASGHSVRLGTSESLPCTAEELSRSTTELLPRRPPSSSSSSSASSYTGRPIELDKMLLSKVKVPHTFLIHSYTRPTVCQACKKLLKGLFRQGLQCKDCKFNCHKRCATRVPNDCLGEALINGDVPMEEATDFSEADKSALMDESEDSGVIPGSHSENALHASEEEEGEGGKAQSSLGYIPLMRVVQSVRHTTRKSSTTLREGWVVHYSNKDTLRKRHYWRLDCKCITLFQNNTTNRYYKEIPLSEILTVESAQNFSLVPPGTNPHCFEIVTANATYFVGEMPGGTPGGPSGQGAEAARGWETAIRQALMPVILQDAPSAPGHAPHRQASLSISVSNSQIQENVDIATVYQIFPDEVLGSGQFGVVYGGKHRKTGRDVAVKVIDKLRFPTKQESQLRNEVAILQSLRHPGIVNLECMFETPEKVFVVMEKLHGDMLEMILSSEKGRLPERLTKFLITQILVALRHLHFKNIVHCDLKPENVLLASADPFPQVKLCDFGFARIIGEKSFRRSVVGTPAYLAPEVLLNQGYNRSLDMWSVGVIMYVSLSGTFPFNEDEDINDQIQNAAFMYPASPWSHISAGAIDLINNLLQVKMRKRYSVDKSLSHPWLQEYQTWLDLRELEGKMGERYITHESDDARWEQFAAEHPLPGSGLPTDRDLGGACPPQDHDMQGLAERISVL

Tyrosine-protein kinase JAK1, sequence (P23458 whole entry): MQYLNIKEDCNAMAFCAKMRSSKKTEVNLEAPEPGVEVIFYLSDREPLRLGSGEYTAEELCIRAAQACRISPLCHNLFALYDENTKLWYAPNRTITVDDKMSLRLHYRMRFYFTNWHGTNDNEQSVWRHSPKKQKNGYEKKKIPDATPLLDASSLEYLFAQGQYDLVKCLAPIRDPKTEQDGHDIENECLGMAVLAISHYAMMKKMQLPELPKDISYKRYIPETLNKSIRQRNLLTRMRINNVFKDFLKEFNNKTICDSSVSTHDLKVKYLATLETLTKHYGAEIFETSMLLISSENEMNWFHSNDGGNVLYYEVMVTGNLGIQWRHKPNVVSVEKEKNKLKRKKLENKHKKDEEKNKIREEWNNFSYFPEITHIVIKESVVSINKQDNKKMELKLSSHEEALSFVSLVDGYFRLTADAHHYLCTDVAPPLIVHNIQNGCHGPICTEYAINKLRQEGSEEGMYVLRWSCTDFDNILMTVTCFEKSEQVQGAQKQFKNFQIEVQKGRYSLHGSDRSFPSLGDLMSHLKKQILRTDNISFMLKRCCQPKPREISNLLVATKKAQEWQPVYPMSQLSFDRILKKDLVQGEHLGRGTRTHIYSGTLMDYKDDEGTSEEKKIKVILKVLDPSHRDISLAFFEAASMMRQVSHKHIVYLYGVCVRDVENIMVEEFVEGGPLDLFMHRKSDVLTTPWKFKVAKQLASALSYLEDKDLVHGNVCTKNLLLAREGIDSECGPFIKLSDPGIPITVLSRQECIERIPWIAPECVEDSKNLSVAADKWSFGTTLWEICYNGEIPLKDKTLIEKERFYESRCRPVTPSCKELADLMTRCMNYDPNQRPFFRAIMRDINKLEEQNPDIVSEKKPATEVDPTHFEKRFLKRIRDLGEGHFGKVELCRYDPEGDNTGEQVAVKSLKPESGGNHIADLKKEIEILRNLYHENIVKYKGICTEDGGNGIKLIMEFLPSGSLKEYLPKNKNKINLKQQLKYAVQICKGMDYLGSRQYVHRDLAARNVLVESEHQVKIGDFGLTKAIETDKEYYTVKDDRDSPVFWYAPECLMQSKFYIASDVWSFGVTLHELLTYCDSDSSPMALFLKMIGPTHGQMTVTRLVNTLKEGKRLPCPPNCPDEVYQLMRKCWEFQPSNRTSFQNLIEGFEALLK
G protein-coupled receptor kinase 4 (Homo sapiens), sequence (P32298 whole entry, looked up): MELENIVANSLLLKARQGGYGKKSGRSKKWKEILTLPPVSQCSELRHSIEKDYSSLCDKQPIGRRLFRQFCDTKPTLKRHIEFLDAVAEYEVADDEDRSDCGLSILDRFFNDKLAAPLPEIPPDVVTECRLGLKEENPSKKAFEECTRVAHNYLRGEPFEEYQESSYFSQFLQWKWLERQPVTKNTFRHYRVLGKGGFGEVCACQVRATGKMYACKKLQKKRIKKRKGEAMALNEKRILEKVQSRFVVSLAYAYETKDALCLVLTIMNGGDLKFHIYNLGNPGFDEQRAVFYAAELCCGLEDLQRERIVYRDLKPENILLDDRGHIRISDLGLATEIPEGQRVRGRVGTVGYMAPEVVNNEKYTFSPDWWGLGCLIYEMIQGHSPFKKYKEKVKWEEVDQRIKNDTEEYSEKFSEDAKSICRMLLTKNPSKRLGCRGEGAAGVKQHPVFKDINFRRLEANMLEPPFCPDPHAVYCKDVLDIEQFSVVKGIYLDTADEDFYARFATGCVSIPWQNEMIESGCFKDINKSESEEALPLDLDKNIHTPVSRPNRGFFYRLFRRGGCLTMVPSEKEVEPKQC
Leukotriene B4 receptor 1 (Homo sapiens), sequence (Q15722 whole entry): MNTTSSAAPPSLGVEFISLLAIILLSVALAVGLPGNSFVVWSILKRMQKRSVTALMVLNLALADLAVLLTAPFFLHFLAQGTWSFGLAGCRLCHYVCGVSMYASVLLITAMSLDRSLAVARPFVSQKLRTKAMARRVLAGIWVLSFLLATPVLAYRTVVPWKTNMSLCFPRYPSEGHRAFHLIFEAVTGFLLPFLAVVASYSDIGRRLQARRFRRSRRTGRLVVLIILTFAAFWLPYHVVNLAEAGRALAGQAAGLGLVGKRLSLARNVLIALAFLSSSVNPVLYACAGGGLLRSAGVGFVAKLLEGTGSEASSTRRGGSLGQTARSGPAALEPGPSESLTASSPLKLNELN
Serine/threonine-protein kinase PAK 3 (Homo sapiens), sequence (O75914 whole entry, looked up): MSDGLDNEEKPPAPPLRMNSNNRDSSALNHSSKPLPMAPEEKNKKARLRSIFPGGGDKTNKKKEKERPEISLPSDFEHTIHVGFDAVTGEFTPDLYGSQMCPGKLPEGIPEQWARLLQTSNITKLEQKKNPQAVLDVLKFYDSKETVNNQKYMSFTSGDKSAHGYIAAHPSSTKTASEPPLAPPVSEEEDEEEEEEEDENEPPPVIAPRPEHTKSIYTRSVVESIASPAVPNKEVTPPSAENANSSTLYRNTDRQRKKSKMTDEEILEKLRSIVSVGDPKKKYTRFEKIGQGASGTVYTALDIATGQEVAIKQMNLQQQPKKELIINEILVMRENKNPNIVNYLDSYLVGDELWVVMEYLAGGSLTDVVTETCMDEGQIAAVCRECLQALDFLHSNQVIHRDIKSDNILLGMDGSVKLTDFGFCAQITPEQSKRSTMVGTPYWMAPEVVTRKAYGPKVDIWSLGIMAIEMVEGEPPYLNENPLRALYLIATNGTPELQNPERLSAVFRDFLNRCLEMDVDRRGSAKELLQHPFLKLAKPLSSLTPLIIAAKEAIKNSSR
Cyclin-dependent kinase 16 (Homo sapiens), sequence (Q00536 whole entry): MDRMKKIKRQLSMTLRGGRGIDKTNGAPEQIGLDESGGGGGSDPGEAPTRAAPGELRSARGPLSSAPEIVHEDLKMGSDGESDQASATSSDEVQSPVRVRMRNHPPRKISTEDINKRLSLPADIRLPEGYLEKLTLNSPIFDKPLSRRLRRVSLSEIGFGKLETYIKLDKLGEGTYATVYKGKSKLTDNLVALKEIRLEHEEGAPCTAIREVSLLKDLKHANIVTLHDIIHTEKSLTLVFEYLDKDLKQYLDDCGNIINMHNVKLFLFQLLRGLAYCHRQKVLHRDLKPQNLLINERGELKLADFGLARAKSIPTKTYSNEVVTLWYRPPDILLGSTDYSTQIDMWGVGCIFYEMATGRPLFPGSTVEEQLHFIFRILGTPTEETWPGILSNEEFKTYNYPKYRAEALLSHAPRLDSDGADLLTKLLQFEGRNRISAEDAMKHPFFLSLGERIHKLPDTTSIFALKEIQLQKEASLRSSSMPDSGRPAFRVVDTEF

With `COc1cc(Nc2nc(C)cc(-c3cnn4nc(OC)ccc34)n2)cc(C(F)(F)F)c1` the % of control [1] was 85%.
In the case of `O=C(NOC[C@H](O)CO)c1ccc(F)c(F)c1Nc1ccc(I)cc1F`, the % of control [2] is reported as 100%.
For `CNCCN1CCC(c2cc(CN(C)C(=O)c3cccc(Oc4ccccc4)c3)ccn2)CC1`, the % of growth rate [3] was -17.2%.
`CC(=O)c1cc(-c2ccccc2OCC2CC2)c2ncccn12` was tested, and the % of control [4] was 96%.
For `CC[C@@H]1[C@H](F)C(=O)N[C@@H]1COc1nccc2cc(C(N)=O)c(OC)cc12` [ZIMLOVISERTIB], the % of inhibition ([5]; at 0.01 µM) was 18%, the % of inhibition ([5]; at 0.04 µM) was 15.6% and the % of inhibition ([5]; at 0.2 µM) was 11.9%. The % of inhibition ([5]; at 1 µM) was 9% and the % of inhibition ([5]; at 5 µM) was -24.4%.
Compound `C=CC(=O)Nc1cc(-n2c(=O)ccc3cnc4ccc(-c5ccc(NS(C)(=O)=O)cc5)cc4c32)ccc1C` has a % of control ([6]; at 1 µM) of 100% and a % of control ([6]; at 10 µM) of 66%.
`O[C@H]1CC[C@H](Nc2ncc3nc(Nc4c(F)cc(F)cc4F)n([C@H]4CCOC4)c3n2)CC1` gave a % of control [7] of 31% and a % of control [8] of 99%.
`CNC(=O)Nc1ccc(-c2nc(N3CC4CCC(C3)O4)c3cnn(C4CCC5(CC4)OCCO5)c3n2)cc1` gave a % of control [9] of 99%.
`C=CC(=O)Nc1cccc(C(=O)Nc2ccc(Nc3cc(-c4[nH]c(SC)nc4C)ccn3)cc2)c1` gave a % of control ([10]; at 1 µM) of 69% and a % of control ([10]; at 5 µM) of 43%.

Reference: ChEMBL document CHEMBL5465560, “Selectivity Literature for EUbOPEN Chemogenomic Library” (2024)
